The test system of one data set is CDK9. Briefly: Immunoblotting of degronimid-treated MM.1S cells: CDK9. Type of data set: cell-based, human. Conditions: 0.01-1 μM, 4 h. The protocol:
(§1) MM.1S cells were seeded in 6-well plates at 3×10^6 cells/well (˜24 h prior to addition of drug). […] Cell pellets were thawed on ice, lysed using RIPA buffer (ThermoFisher) with protease/phosphatase inhibitor cocktail (Cell Signal Technology, Danvers, Mass.) by incubating on ice 30 min. The lysates were clarified by spinning at 10,000 g for 10 min at 4° C. and the concentration of the lysate was determined using BCA protocol (ThermoFisher). Samples were prepared for Western blot using LDS sample buffer (NuPage, Invitrogen, Carlsbad, Calif., USA) with sample reducing agent (NuPage, Invitrogen) and heated to 95° C. for 5 min. Samples were loaded (20 ug/sample) into Tris-acetate or Bis-Tris gels (NuPage, Invitrogen) and run as per kit instructions using appropriate running buffers. Gels were transferred as described (Matthews et al., 2015) onto PVDF membrane using SDS-based transfer buffer (NuPage, Invitrogen). Membranes were blocked (5% skim milk; or 5% bovine serum albumin in TBS-T) for at least 30 min then probed with primary antibodies overnight (4° C.). […] Each protein of interest (BRD2, BRD3, BRD4, c-myc and CDK9) was assessed in a separate gel and corresponding membrane (which was simultaneously incubated with antibodies for both the target protein of interest and GAPDH, to provide a loading control within the same blot). […]

The next data set relates to human MM cell lines. Kind of data set: CTG / CS-BLI cell viability of human MM cell lines. Type of data set: cell-based. The protocol:
(§2) Cell viability and growth of human MM cell lines were assessed using CellTitre-Glo (CTG) assay (Promega, Madison, Wis.) per kit instructions, or CS-BLI as described (Delmore et al., 2011). Briefly, cells were seeded (5×10^3 cells/well) into 96- or 384-well opaque plates, in supplemented media (40 or 50 uL) and incubated for 24 h prior to addition of drug. For co-culture experiments, HS27A cells were pre-seeded (5×10^3 cells/well) into each well in media prior (24 h) to the addition of MM cells. At each time point (24 h, 48 h, and/or 72 h) CTG reagent (10% volume) was added to each well, and plates were read using a microplate reader (BioTek Synergy 2, BioTek, Winooski, Va.).

Another data set deals with T1, BRD3 (Homo sapiens, UniProt Q15059).
T1 construct: endogenous in cells; host or cells: MM.1S
T1 sequence (Q15059 whole entry): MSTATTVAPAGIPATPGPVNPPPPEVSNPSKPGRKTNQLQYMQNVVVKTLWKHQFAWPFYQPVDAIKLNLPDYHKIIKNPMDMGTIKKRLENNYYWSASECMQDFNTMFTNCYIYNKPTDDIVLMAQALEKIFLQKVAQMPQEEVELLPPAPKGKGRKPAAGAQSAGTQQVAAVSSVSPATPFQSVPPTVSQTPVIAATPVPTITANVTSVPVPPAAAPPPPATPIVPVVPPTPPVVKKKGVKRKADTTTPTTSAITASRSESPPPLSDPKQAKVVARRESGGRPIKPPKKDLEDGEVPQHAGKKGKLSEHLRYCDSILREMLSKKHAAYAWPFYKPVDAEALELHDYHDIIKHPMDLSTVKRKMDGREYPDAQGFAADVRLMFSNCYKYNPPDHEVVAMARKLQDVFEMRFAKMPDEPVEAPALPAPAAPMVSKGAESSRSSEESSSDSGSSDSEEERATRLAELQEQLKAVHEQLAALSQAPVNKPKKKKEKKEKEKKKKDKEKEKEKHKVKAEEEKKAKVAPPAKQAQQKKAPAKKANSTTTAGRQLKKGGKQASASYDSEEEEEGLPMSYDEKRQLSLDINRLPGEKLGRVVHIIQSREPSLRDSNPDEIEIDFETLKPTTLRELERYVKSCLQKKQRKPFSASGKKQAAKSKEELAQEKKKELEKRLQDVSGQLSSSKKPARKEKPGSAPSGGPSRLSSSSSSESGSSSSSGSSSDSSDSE
Kind of data set: Immunoblotting of degronimid-treated MM.1S cells: BRD3. Conditions: 0.01-1 μM, 4 h. Type of data set: cell-based. The protocol:
as §1
Background: In western blotting, separated proteins are transferred to a membrane and probed.

Data set [1] deals with MM.1S cells. Briefly: Assessment of apoptosis, Annexin V/PI flow cytometry. Type of data set: cell-based, human. The protocol: For the assessment of apoptosis, MM.1S cells were seeded into 6-well plates (2×10^6 cells/well) in medium supplemented with 10% FBS and penicillin/streptomycin (3.2 mL) 24 h prior to treatment. Cells were treated with dBET6, JQ1, or vehicle and harvested prior to staining with Annexin V-FITC and PI (BD, Bedford, Mass.). Apoptosis was assessed immediately using flow cytometry (LSR II, BD, Bedford, Mass.)
(In flow cytometry, cells or beads pass a laser one at a time.)

Another data set concerns human MM.1S cells. Kind of data set: Xenograft model of diffuse MM lesions. Type of data set: in vivo, NSG mice. Conditions: 20 mg/kg, QD, 12 days. The protocol: (§3) ii. Xenograft model of diffuse MM lesions: Luciferase-positive MM.1S cells (1×106 Luc-GFP-MM.1S) were injected via the tail vein (IV) into NSG mice. […] BLI was undertaken weekly and mice were euthanized when moribund or upon signs of hind-limb paralysis.

A short description of data set [2]: Tolerability of dBET6 treatment in mice. Type of data set: in vivo. The protocol: i. Subcutaneous MM xenograft model: Luciferase-positive MM.1S cells (10×106 Luc-GFP-MM.1S in matrigel) were transplanted into the right flank of NSG mice (100 μL). […] Treatments were carried out daily for 8 days and tumor size assessed daily using calipers. Mice were culled when tumors reached 2000 mm3 or when moribund.
as §3

The subject of data set [3] is MM.1S cells. Kind of data set: CTG viability of CRISPR-edited MM.1S pools tolerant to bortezomib or JQ1. Type of data set: cell-based, human. Conditions: vs treatment-naive cells with the same sgRNA library. The protocol:
as §2
iii. […] Following treatments, all cells were serially cultured without drug and allowed to regrow for as long as required to enable reseeding (60×10^6 cells per flask, 100 mL) and retreatment with individual drugs while maintaining ˜1000× coverage throughout. Concomitant with retreatment, remaining cells were frozen (−80° C.; 20% FBS/DMSO) for later analysis or assessed for drug resistance/sensitivity using CTG assays. Between treatments, and in order to maintain the health of cultures, dead cells were periodically removed using Ficoll centrifugation (1,500 rpm for 10-20 min). For all CRISPR drug treatment experiments, aliquots of MM.1S-Cas9+ cells transduced with the GeCKO(Sanjana et al., 2014; Shalem et al., 2014) or Brunello (Doench et al., 2016) sgRNA libraries were frozen immediately prior to experimentation to determine the baseline distribution of sgRNAs in the cell population.

In a further data set the test system is patient-derived MM cells. Briefly: Ex vivo treatment of patient-derived CD138+ tumor cells, CTG. Type of data set: cell-based, human. Conditions: variable prior therapies. The protocol:
Bone marrow aspirates (1-4 mL) from individuals with MM (newly diagnosed, smoldering, relapsed/refractory, maintenance treatment) or MGUS were collected after patients provided informed consent and based on tissue collection protocol approved by the Dana-Farber Cancer Institute Institutional Review Board. Samples were processed for separation of CD138+ plasma cells, using CD138-positive selection beads, and immunomagnetic separation, as per kit instructions (EasySep, StemCell, Cambridge, Mass.). Patient-derived tumor cells were cultured in RPMI 1640 medium supplemented with L-glutamine (Life Technologies, Carlsbad, Calif., USA), FBS (10%) (Gemini Bioproducts, Woodland, Calif.), 20 I.U./mL penicillin and 20 μg/mL streptomycin (Fisher Scientific, Springfield, N.J., USA) and hIL-6 (Thermo Fisher Scientific, Waltham, Mass., USA […]).
Samples were processed for separation of CD138+ plasma cells, using CD138-positive selection beads, and immunomagnetic separation, as per kit instructions (EasySep, StemCell, Cambridge, Mass.). […] Viability was assessed using CTG, as described (24 h, 48 h, 72 h) and each treatment was repeated up to 3 times (n=3 biological replicates).

Entries after “also recorded” stand apart in the source; their conditions may differ.

`CC(C)(C)c1cnc(CSc2cnc(NC(=O)C3CCN(CC(=O)NCCOCCOCCOCCNc4cccc5c4C(=O)N(C4CCC(=O)NC4=O)C5=O)CC3)s2)o1` (stereo not shown) [Thal-SNS-032]: the CDK9 protein levels entry with CDK9 is on record as “causes degradation of CDK9”.
Consider `Cc1sc2c(c1C)C(c1ccc(Cl)cc1)=N[C@@H](CC(=O)NCCCCCCCCNC(=O)COc1cccc3c1C(=O)N(C1CCC(=O)NC1=O)C3=O)c1nnc(C)n1-2` (stereo partly shown) [dBET6], for which the “suppression of MM cell viability” value in the data set on human MM cell lines (MM.1S, RPMI-8226, JJN3, 48 h, CTG or CS-BLI, vs JQ1) is given as “more pronounced suppression of MM cell viability than JQ1”. The “in vitro anti-MM activity” value in the data set with human MM cell lines (human MM cell lines, dBET6 compared to dBET1 or JQ1) is given as “more potent in vitro anti-MM activity of dBET6 compared to dBET1 or JQ1”. The loss of viability result in the data set with human MM cell lines (larger panel of human MM cell lines, 48 h) is “significant loss of viability in all lines tested”. Further, at BRD3, the BRD3 protein levels result was “rapid and robust depletion”. In the data set on MM.1S cells [1] (MM.1S cells, Annexin V/PI staining), the “exposure prior to drug washout sufficient to commit cells to cell death” value is not above 4 h. Besides, the pro-apoptotic response entry in the data set with MM.1S cells [1] (human MM.1S cells, 0.01 μM or 0.05 μM) was “dose- and time-dependent pro-apoptotic response”. In the data set on human MM.1S cells, the overall survival entry was “only minimal overall survival advantage” and the “tumor burden measured by BLI vs vehicle” value was “significantly lower tumor burden”. Further, the tolerability result in data set [2] (doses and schedules reported) is on record as “Mice tolerated dBET6 treatment”. The “efficacy or tolerability of alternative regimens” value in data set [2] (pilot experiments, lower or higher dose intensity (data not shown)) is listed as “less efficacy or tolerability, respectively”. Also, the “dBET6 sensitivity of pools tolerant to bortezomib or JQ1” value with MM.1S cells [3] is given as “do not exhibit resistance to dBET6; also recorded: equal to or greater than treatment-naive cells”. The “response of patient-derived cells” value in the data set with patient-derived MM cells is on record as “dose-dependent response”.

These data come from US20220288051A1, “METHODS FOR TREATING CANCER USING SERIAL ADMINISTRATION OF E3 UBIQUITIN LIGASE DEGRADERS” (Dana-Farber Cancer Institute, Inc., priority 2019, published 2022).
